Changes are numbered by the printed parent chain. Entries after “also recorded” stand apart in the source; their conditions may differ. Counter-ions that a name gives are not always drawn. Like-named read-outs stand apart in the source and are kept apart here.
Experiments:
human TAS2R7 [1] = target: T1, human TAS2R7 (Homo sapiens, UniProt Q9NYW3); assay: Calcium mobilization assay, HEK293 cells transfected with TAS2R7 and Gα16-gust44; assay type: cell-based; details: for Dose dependence of TAS2R7 response: Figure 2A,C; for Compounds triggering detectable responses in cells transfected with TAS2R7: at the concentrations reported previously (Meyerhof et al. 2010), Figure 4A
T1 construct: first 45 residues of rat somatostatin receptor 3 (signal peptide) (N); expressed in transfected cells; host or cells: HEK293 (PEAKrapid, ATCC CRL-2828)
T1 sequence (Q9NYW3 1-318): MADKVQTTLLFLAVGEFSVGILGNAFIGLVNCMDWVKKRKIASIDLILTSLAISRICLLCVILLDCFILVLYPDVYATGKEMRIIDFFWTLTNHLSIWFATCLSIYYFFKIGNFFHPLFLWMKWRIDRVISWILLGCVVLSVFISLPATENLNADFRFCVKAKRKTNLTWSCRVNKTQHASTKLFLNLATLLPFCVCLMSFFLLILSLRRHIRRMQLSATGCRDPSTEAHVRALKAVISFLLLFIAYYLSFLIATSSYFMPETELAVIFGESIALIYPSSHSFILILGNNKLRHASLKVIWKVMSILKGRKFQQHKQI
Excerpt: (§1) The coding sequences of human TAS2Rs were amplified from human genomic DNA, then subcloned into pcDNA3.1(+) vector, with the herpes simplex virus glycoprotein D epitope (HSV) at the C-terminal and a signal peptide consisting of the first 45 amino acid residues of the rat somatostatin receptor 3 at the N-terminal, essentially as described previously ([Bufe et al. 2002]). Point mutations in human TAS2R7 (NCBI Reference Sequence: NP_076408.1) were constructed by site-directed mutagenesis. All the constructs were confirmed by Sanger sequencing.
All tested compounds were purchased from Sigma–Aldrich, with the exception of diphenidol hydrochloride (Reagent World) and L-praziquantel (manufactured by Shaoxing Pharmaceutical Co. Ltd.). All the metal ions were dissolved in the assay solution (130 mM NaCl, 5 mM KCl, 2 mM CaCl2, and 10 mM glucose; pH 7.4) unless specified otherwise, and the bitter compounds (diphenidol, quinine, and chlorphenamine) were dissolved first in dimethyl sulfoxide (DMSO) as stock solution and then diluted with the assay solution; the final DMSO concentration was below 0.5%, with the exception of cromolyn, which is dissolved in the assay solution directly. For our initial screening (Table 1), Hanks’ balanced salt solution (HBSS, ThermoFisher, catalog no. 14025134) supplemented with 10 mM hydroxyethyl piperazineethanesulfonic acid (HEPES) were used as the assay buffer.
(§2) Human embryonic kidney 293 (PEAKrapid, ATCC # CRL-2828) cells were cultured in Opti-MEM medium with 4% fetal bovine serum. One day before transfection, cells were seeded on a 96-well plate at a density of 25 000 per well. Cells were then transiently transfected with a TAS2R construct (0.1 µg/well) along with a G protein Gα16-gust44 (0.1 µg/well) construct by Lipofectamine 2000 (0.5 µl/well). For controls, only Gα16-gust44 was used (mock transfection). Twenty-four hours after transfection, cells were washed with HBSS including 10 mM HEPES and loaded with Fluo-4 in the dark for 1 h. After incubation, cells were washed 2 times with HBSS (including 10 mM HEPES), incubated in the dark for another 30 min, and then washed with assay solution once more before running the assay using a FlexStation III reader. Relative fluorescence units (excitation at 494 nm, emission at 516 nm, and auto cutoff at 515 nm) were read every 2 s for 2 min. Calcium mobilization traces were recorded.
(§3) Calcium mobilization traces were raw data obtained from single wells. Changes in fluorescence (ΔF) were calculated as the peak fluorescence minus baseline fluorescence ([Lei et al. 2015]). The calcium mobilization was quantified as the percentage of change (ΔF) relative to baseline (F). […] Calcium mobilization traces and bar graphs along with dose-dependent plots were all generated by GraphPad Prism 7. Analysis of variance with Dunnett’s multiple comparisons test was used for statistical analysis. *P < 0.05.
To determine whether a TAS2R responds to metal ions, we expressed all 25 human bitter receptors individually in HEK293 cells (PEAKrapid) by transient transfection of a TAS2R along with a coupling chimeric G protein, Gα16-gust44. All TAS2Rs were cloned from human genomic DNA. Activation of human TAS2Rs was monitored by the calcium mobilization assay ([Lei et al. 2015]). We tested these receptors individually for their responses toward metal ions: ZnSO4 (20 mM), CuSO4 (20 mM), and MgCl2 (20 mM) (Table 1, Figure 1A). […] To determine the breadth of tuning of TAS2R7 toward metal ions, we also tested MnCl2 (20 mM), Al2(SO4)3 ([…]), and CaCl2 (20 mM) (Figure 1B).

human TAS2R14 = target: T2, human TAS2R14 (Homo sapiens, UniProt Q9NYV8); assay: Calcium mobilization assay, HEK293 cells transfected with TAS2R14 and Gα16-gust44; assay type: cell-based; details: 0.5 mM; Figure 3B
T2 construct: first 45 residues of rat somatostatin receptor 3 (signal peptide) (N); expressed in transfected cells; host or cells: HEK293 (PEAKrapid, ATCC CRL-2828)
T2 sequence (Q9NYV8 1-317): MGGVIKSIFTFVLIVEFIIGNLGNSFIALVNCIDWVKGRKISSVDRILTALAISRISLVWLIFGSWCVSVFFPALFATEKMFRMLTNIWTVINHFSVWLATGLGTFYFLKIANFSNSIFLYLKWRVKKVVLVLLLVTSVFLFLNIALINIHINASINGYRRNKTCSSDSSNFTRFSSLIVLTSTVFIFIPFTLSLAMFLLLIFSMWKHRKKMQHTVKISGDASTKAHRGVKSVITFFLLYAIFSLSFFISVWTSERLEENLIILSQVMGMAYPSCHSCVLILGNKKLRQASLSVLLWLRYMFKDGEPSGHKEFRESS
Excerpt: The coding sequences of human TAS2Rs were amplified from human genomic DNA, then subcloned into pcDNA3.1(+) vector, with the herpes simplex virus glycoprotein D epitope (HSV) at the C-terminal and a signal peptide consisting of the first 45 amino acid residues of the rat somatostatin receptor 3 at the N-terminal, essentially as described previously ([Bufe et al. 2002]). Point mutations in human TAS2R7 (NCBI Reference Sequence: NP_076408.1) were constructed by site-directed mutagenesis. All the constructs were confirmed by Sanger sequencing. […]
Human embryonic kidney 293 (PEAKrapid, ATCC # CRL-2828) cells were cultured in Opti-MEM medium with 4% fetal bovine serum. […] After incubation, cells were washed 2 times with HBSS (including 10 mM HEPES), incubated in the dark for another 30 min, and then washed with assay solution once more before running the assay using a FlexStation III reader. Relative fluorescence units (excitation at 494 nm, emission at 516 nm, and auto cutoff at 515 nm) were read every 2 s for 2 min. Calcium mobilization traces were recorded.
Calcium mobilization traces were raw data obtained from single wells. Changes in fluorescence (ΔF) were calculated as the peak fluorescence minus baseline fluorescence ([Lei et al. 2015]). The calcium mobilization was quantified as the percentage of change (ΔF) relative to baseline (F). […]

[2] = target: T3, human TAS2R7 E264^7.32K mutant (Homo sapiens, UniProt Q9NYW3, E264K); assay: Calcium mobilization assay, TAS2R7 mutant E264K; assay type: cell-based; details: 20 mM metal ions except 0.16 mM Al2(SO4)3; cromolyn 10 mM; Figure 6B
T3 construct: signal peptide: first 45 amino acid residues of rat somatostatin receptor 3 (N); expressed in transfected cells; host or cells: HEK293 PEAKrapid (ATCC CRL-2828), transient, co-transfected with Gα16-gust44
T3 sequence (Q9NYW3 1-318 E264K): T1 sequence (Q9NYW3 1-318) with E264K
Excerpt: as §1, §2, §3
To assess the importance of these residues, we performed site-directed mutagenesis. We mutated the negatively charged residues E16^1.42, E264^7.32, and E271^7.39 to Q (glutamine), K (lysine), or L (leucine). The facing H94^3.37 was mutated to F (phenylalanine). HEK293 cells that expressed mutant receptors along with Gα16-gust44 were examined for their responses to metal ions (20 mM for all except 0.16 mM Al2(SO4)3) and cromolyn (10 mM, as a positive control) to assess receptor’s function. To determine the expression level of each receptor, we stained the wild-type or mutant receptor-transfected cells using an anti-HSV antibody since all the receptors are tagged with HSV at c-terminal. […]

[3] = target: T4, human TAS2R7 E264^7.32L mutant (Homo sapiens, UniProt Q9NYW3, E264L); assay: Calcium mobilization assay, TAS2R7 mutant E264L; assay type: cell-based; details: 20 mM metal ions except 0.16 mM Al2(SO4)3; cromolyn 10 mM; Figure 6B
T4 construct: signal peptide: first 45 amino acid residues of rat somatostatin receptor 3 (N); expressed in transfected cells; host or cells: HEK293 PEAKrapid (ATCC CRL-2828), transient, co-transfected with Gα16-gust44
T4 sequence (Q9NYW3 1-318 E264L): T1 sequence (Q9NYW3 1-318) with E264L
Excerpt: as §1, §2
Calcium mobilization traces were raw data obtained from single wells. Changes in fluorescence (ΔF) were calculated as the peak fluorescence minus baseline fluorescence ([Lei et al. 2015]). The calcium mobilization was quantified as the percentage of change (ΔF) relative to baseline (F). […] Calcium mobilization traces and bar graphs along with dose-dependent plots were all generated by GraphPad Prism 7. Analysis of variance with Dunnett’s multiple comparisons test was used for statistical analysis. *P < 0.05. […]

human TAS2R7 [4] = target: T1, human TAS2R7; set-up: method as in Meyerhof et al. 2010; details: ref Meyerhof et al. 2010; cited from earlier work
[5] = assay solution containing calcium, Figures 3A, 4C, read-out: EC50, TAS2R7, in the presence of calcium
[6] = assay solution containing no calcium, Figures 3A, 4C, read-out: EC50, TAS2R7, in the absence of calcium
[7] = assay solution with 2 mM CaCl2, Figure 2, read-out: EC50, TAS2R7 concentration-response
[8] = Supplementary Figure S2, read-out: EC50, TAS2R7, comparison of anions

| Structure (SMILES) | Dose dependence of TAS2R7 response (human TAS2R7 [1]) | EC50 (human TAS2R7 [1]; [5]) [mM] | EC50 (human TAS2R7 [1]; [6]) [mM] | EC50 (human TAS2R7 [1]; [7]) [mM] | Compounds triggering detectable responses in cells transfected with TAS2R7 (human TAS2R7 [1]) | TAS2R7 reported to respond to bitter compounds (human TAS2R7 [4]) | also measured |
| --- | --- | --- | --- | --- | --- | --- | --- |
| [Ca+2].[Cl-].[Cl-] [CaCl2] | dose-dependent responses | 7.56 | 4.7 | 5.27 ± 0.5 | – | – | Activation of TAS2R7 by metal ions (human TAS2R7 [1]; 20 mM, Figure 1A,B): activated the receptor |
| O=S(=O)([O-])[O-].[Cu+2] [CuSO4] | dose-dependent responses | 1.89 | 0.85 | 1.04 ± 0.36 | – | – | – |
| [Cl-].[K+] [KCl, potassium chloride] | – | – | – | – | – | – | Activation of TAS2R7 by monovalent salt (human TAS2R7 [1]; any concentration tested, Figures 1C,D and 2A): did not activate the receptor; also recorded: not responsive |
| O=C(C1CCCCC1)N1CC(=O)N2CCc3ccccc3[C@@H]2C1 [L-praziquantel] | – | – | – | – | – | – | Response amplitude of TAS2R14 in the absence versus presence of calcium (human TAS2R14): reduced response amplitude |
| [Cl-].[Cl-].[Mg+2] [MgCl2] | dose-dependent responses | 7.84 | 5.78 | 6.07 ± 1.07 | – | – | Maximal response of TAS2R7 in the absence versus presence of calcium (human TAS2R7 [1]; assay solution without calcium compared with calcium): smaller |
| [Cl-].[Cl-].[Zn+2] [ZnCl2] | – | – | – | – | – | – | EC50 (human TAS2R7 [1]; [8]): 3.42 mM |
| O=S(=O)([O-])[O-].[Zn+2] [ZnSO4] | dose-dependent responses | 2.41 | 3.49 | – | – | – | EC50 (human TAS2R7 [1]; [8]): 3.21 mM; Response of E264K mutant receptor [2]: specific loss of responses; Response of E264L mutant receptor [3]: responded |
| CN(C)CCC(c1ccc(Cl)cc1)c1ccccn1 (centres unmarked) [chlorphenamine, reference compound] | – | – | – | – | none | respond | – |
| OC(CCCN1CCCCC1)(c1ccccc1)c1ccccc1 [diphenidol, diphenidol hydrochloride, reference compound] | – | – | – | – | none | respond | – |
| C=C[C@H]1C[N@@]2CC[C@H]1C[C@H]2[C@H](O)c1ccnc2ccc(OC)cc12 [quinine, reference compound] | – | – | – | – | none | respond | – |
